In patent publication US20250074891A1 (Anaxis Pharma Pty Ltd., priority 2021, published 2025):

Key:
[1] = test system: U937 cells; assay: Counter screen: cell viability without TSQ cocktail (off-target effect); parameters: species or system human; details: Homo sapiens, U-937, Table 38, read-out: Off-target effect (IC50 cell-based assay)
Experimental: Counter screen: In parallel, all compounds were tested for their ability to affect cell viability. The same U937 cells were treated with compound in DMSO without the TSQ cocktail. This counter screen enabled evaluation of off-target effects. In this case, cell viability was measured by CelltiterGlo.

[2] = test system: U937 human histiocytic leukemia cell line; assay: Cellular assay: inhibition of TSQ induced necroptosis (CellTitre-Glo); details: Homo sapiens, U-937; U937 cells, TSQ cocktail, 48 hours, Table 38; read-out: Inhibition of TSQ-induced necroptosis (IC50 cell-based assay)
Experimental: […] ASSAY: Screening compounds for inhibition of TSQ induced necroptosis, 384 well plate format.
Cell Line ID: U937 human histiocytic leukemia cell line.
Cell Concentration (cells/well): Final cell density is 20,000 cells per well.
Cell growth medium: HT-RPMI medium+7.4% Fetal Bovine Serum (FBS). Cells are cultured in Corning 150 cm^z tissue culture flasks with vented caps at 37° C./5% CO2.
Incubation: Plates were incubated at 37° C./5% CO2 in a humidified incubator for 48 hours following addition of compounds and death stimuli (TSQ cocktail).
Compound concentration: 36 μM starting concentration, 1:3 dilution, 10 point
DMSO final concentration (% v/v): 0.3%.
Compounds in TSQ cocktail (T: TNF; S: Smac mimetic; Q: Q-VD-OPh) and their final concentrations: • hTNF-Fc (100 ng/ml)—produced by standard procedures as shown in Bossen et al., J Biol Chem, 2006, 281(20), 13964-13971. • Compound A (500 nM)—Smac mimetic, Tetralogic and SYNthesis med chem • Q-VD-OPh (10 μM)—MP Biomedicals
The cellular assay was carried out according to the following steps: • 1. Each well was prepared by sequential addition of: • a. DMSO (control; columns 1-2 and 23-24) or compound in DMSO—addition was performed using acoustic transfer of nl volumes of stock compound to give final test concentrations of 36, 12, 4, 1.3, 0.44, 0.148, 0.049, 0.016, 0.005 and 0.002 μM. All wells were backfilled with DMSO to a final total volume in the well of 100 nl. • b. Following compound/DMSO addition in step (a), 40 μL of cell suspension (5×10^5 cells/mL) was added to provide a final cell concentration of 20,000 cells per well, and • c. Following cell addition in step (b), 10 μL of 5×TSQ cocktail (except to positive controls; […]) was added to each well. • 2. After 48 hours, plate was removed from the 37° C. incubator and equilibrated to room temperature for 45 minutes. • 3. 15 μL of room temperature CellTitre-Glo2™ (Promega™) was added to each well. • 4. Shook plates for 2 minutes (˜600 rpm) and incubated at room temperature for 15 minutes to allow signal to stabilise. • 5. Read luminescence readout on a plate reader.
Percent viability was calculated for each compound according to equation (2):
[formula] • wherein • RawData is the readout of any cell containing a compound of the invention • TA is the total activity provided by the luminescence readout from DMSO only wells (columns 2 and 24)=100% viability • NSA is the non-specific activity provided by DMSO+TSQ wells (columns 1 and 23)=0% viability
Curve fitting: 10-point titration curves are fitted with the 4-parameter logistic nonlinear regression model and the IC50 reported is the inflection point of the curve.
Analysis: Data was loaded into Dotmatics™ and visualised using the Tibco® Spotfire™ software. 10 points titration curves were fitted with the 4-parameter logistic nonlinear regression model and the IC50 reported reflect the inflection point of the curve for curve fitting.
Assay involving the TSQ cocktail (T: TNF; S: Smac mimetic; Q: Q-VD-OPh): TSQ treatment ensures that cells specifically undergo necroptotic cell death. TNF activates the TNF receptor, Smac mimetic directs the signal away from proinflammatory signaling and toward the RIP1/RIP3-mediated cell death pathways, and Q-VD-OPh ensures that the apoptotic response is blocked leaving only the programmed necrosis response. The compounds' activity (solution in DMSO) tested in this TSQ-induced assay was evaluated by determining the number of viable cells in culture by measuring the amount of ATP present as measured by CelltiterGlo.

[3] = target: MLKL (full length) (Homo sapiens (Human), UniProt Q8NB16); assay: KINOMEscan binding assay, MLKL (full length); details: Table 36
Experimental: Kinase assays. For most assays, kinase-tagged T7 phage strains were grown in parallel in 24-well blocks in an E. coli host derived from the BL21 strain. E. coli were grown to log-phase and infected with T7 phage from a frozen stock (multiplicity of infection=0.4) and incubated with shaking at 32° C. until lysis (90-150 minutes).
The Hill Slope was set to −1.

Chain of MLKL (full length) (Q8NB16 whole entry): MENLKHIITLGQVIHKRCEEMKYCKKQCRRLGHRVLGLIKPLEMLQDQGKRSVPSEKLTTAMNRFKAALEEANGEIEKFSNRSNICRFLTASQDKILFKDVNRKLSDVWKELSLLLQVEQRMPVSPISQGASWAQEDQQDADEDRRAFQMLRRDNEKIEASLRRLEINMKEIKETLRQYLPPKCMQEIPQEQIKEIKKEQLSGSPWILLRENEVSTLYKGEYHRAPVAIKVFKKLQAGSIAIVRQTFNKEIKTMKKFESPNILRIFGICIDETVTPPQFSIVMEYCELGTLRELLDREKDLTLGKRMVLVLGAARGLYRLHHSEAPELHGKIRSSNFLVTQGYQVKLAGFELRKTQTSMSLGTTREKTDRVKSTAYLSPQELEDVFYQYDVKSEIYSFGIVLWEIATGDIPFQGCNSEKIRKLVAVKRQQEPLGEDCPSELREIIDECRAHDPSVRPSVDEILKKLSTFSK

Kd [3] [nM] | SMILES | IC50 [1] [nM] | IC50 [2] [nM]
10 to 1000 | Cc1ncsc1-c1ccc(CNC(=O)[C@@H]2C[C@@H](O)CN2C(=O)[C@@H](NC(=O)CCCCC#Cc2ccc(Nc3[nH]nc(-c4ccc(NS(=O)(=O)C(F)F)c(O[C@@H](C)c5ccc(F)cc5)c4)c3C(N)=O)nc2)C(C)(C)C)cc1 [Compound 1047, 3-[4-(difluoromethanesulfonamido)-3-[(1 S)-1-(4-fluorophenyl)ethoxy]phenyl]-5-{[5-(6-{[(2S)-1-[(2S,4R)-4-hydroxy-2-({[4-(4-methyl-1,3-thiazol-5-yl)phenyl]methyl}carbamoyl)pyrrolidin-1-yl]-3,3-dimethyl-1-oxobutan-2-yl]carbamoyl}hex-1-yn-1-yl)pyridin-2-yl]amino}-1H-pyrazole-4-carboxamide] | 1000 to 10000 | < 1000
< 10 | Cc1ncsc1-c1ccc(CNC(=O)[C@@H]2C[C@@H](O)CN2C(=O)[C@@H](NC(=O)CCCCOC(=O)c2ccc(Nc3[nH]nc(-c4ccc(NS(=O)(=O)C(F)F)cc4)c3C(N)=O)nc2)C(C)(C)C)cc1 [Compound 1049, 4-{[(2S)-1-[(2S,4R)-4-hydroxy-2-({[4-(4-methyl-1,3-thiazol-5-yl)phenyl]methyl}carbamoyl)pyrrolidine-1-yl]-3,3-dimethyl-1-oxobutan-2-yl]carbamoyl}butyl 6-({4-carbamoyl-3-[4-(difluoromethanesulfonamido)phenyl]-1H-pyrazol-5-yl}amino)pyridine-3-carboxylate] | > 10000 | 1000 to 10000
1000 to 30000 | CCS(=O)(=O)Nc1ccc(-c2n[nH]c(Nc3ccc(C(=O)OCCCCC(=O)N[C@H](C(=O)N4C[C@H](O)C[C@H]4C(=O)NCc4ccc(-c5scnc5C)cc4)C(C)(C)C)cn3)c2C(N)=O)cc1OCc1ccc(F)cc1 [Compound 1052, 4-{[(2S)-1-[(2S,4R)-4-hydroxy-2-{{[4-(4-methyl-1,3-thiazol-5-yl)phenyl]methyl}carbamoyl)pyrrolidin-1-yl]-3,3-dimethyl-1-oxobutan-2-yl]carbamoyl}butyl 6-[(4-carbamoyl-3-{4-ethanesulfonamido-3-[(4-fluorophenyl)methoxy]phenyl}-1H-pyrazol-5-yl)amino]pyridine-3-carboxylate] | > 10000 | > 10000
10 to 1000 | Cc1ncsc1-c1ccc(CNC(=O)[C@@H]2C[C@@H](O)CN2C(=O)[C@@H](NC(=O)CCCCOC(=O)c2ccc(Nc3[nH]nc(-c4ccc(NS(=O)(=O)C(F)F)c(OCc5ccc(F)cc5)c4)c3C(N)=O)nc2)C(C)(C)C)cc1 [Compound 1055, 4-{[(2S)-1-[(2S,4R)-4-hydroxy-2-({[4-(4-methyl-1,3-thiazol-5-yl)phenyl]methyl}carbamoyl)pyrrolidin-1-yl]-3,3-dimethyl-1-oxobutan-2-yl]carbamoyl}butyl 6-({4-carbamoyl-3-[4-(difluoromethanesulfonamido)-3-[(4-fluorophenyl)methoxy]phenyl]-1H-pyrazol-5-yl}amino)pyridine-3-carboxylate] | > 10000 | < 1000
10 to 1000 | CCS(=O)(=O)Nc1ccc(-c2n[nH]c(Nc3ccc(C(=O)OCCCCC(=O)N[C@H](C(=O)N4C[C@H](O)C[C@H]4C(=O)NCc4ccc(-c5scnc5C)cc4)C(C)(C)C)cn3)c2C(N)=O)cc1 [Compound 1060, 4-{[(2S)-1-[(2S,4R)-4-hydroxy-2-({[4-(4-methyl-1,3-thiazol-5-yl)phenyl]methyl}carbamoyl)pyrrolidin-1-yl]-3,3-dimethyl-1-oxobutan-2-yl]carbamoyl}butyl 6-{[4-carbamoyl-3-(4-ethanesulfonamidophenyl)-1H-pyrazol-5-yl]amino}pyridine-3-carboxylate] | > 10000 | < 1000
